Measurements from patent US20260364030A1, “NOVEL SELECTIVE INHIBITORS OF LYSYL OXIDASES” (Syntara Limited, priority 2022, published 2026).

Assays:
[1] = biological target: T1, LOXL1 (Homo sapiens, UniProt Q08397); experiment: Time-dependent inhibition of LOXL1, Amplex Red oxidation assay; format: biochemical; conditions: for IC50: 37 °C
T1 sequence (Q08397 96-574): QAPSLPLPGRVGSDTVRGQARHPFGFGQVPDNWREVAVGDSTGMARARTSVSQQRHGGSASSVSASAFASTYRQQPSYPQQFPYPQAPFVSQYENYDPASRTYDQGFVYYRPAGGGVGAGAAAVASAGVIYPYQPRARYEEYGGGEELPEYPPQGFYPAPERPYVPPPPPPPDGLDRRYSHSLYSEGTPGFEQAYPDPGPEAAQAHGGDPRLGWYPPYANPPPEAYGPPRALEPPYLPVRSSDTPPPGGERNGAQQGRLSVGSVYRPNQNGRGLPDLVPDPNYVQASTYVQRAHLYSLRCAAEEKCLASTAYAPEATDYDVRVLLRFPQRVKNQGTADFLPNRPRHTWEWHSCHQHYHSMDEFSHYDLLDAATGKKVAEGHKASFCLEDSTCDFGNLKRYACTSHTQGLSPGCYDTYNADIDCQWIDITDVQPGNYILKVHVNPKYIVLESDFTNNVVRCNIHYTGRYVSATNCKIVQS
Description: The time dependent inhibitory effects of the Compound 1 of the present invention were tested against the given LOXL1 preparation and LOXL2 preparation using a method based on the detection of hydrogen peroxide with an Amplex Red oxidation assay [Zhou et al. 1997]. The assay was developed for use in either 384 or 96 well format. Briefly, in a standard black, clear bottom 384 well plate assay 25 µL of a dilution of any of the isoenzymes and orthologues in 1.2 M urea, 50 mM sodium borate buffer (pH 8.2) were added into each well in the presence of […] and 0.5 mM pargyline (to inhibit SSAO and MAO-B and MAO-A, respectively; not necessary if the enzyme is from a recombinant or purified form). Test compound (Compound 1) was dissolved in DMSO and tested in a Concentration Response Curve (CRC) with 11 data points, typically in the micromolar or nanomolar range after incubation with the enzyme for different time points at 37 °C. 25 μL of a reaction mixture containing twice the KM concentration of putrescine (Sigma Aldrich, e.g. 20 mM for LOXL1 or 10 mM for LOXL2), 120 µM Amplex Red (Thermo Fisher Scientific) and 1.5 U/mL horseradish peroxidase (Sigma Aldrich) prepared in 1.2 M urea, 50 mM sodium borate buffer (pH 8.2) were then added to the corresponding wells. The fluorescence (RFU) was read every 2.5 min for 30 min at 37 °C, excitation 544 nm and emission 590 nm (Optima; BMG labtech). The slope/min of the kinetics for each well was calculated using MARS data analysis software (BMG labtech) and this value was used to deduce the IC50 value (Dotmatics).

[2] = Diffusion through human skin, Franz diffusion cell; format: in vitro ADME; conditions: topical formulation containing 2% Compound 1
Source text: Skin permeability is essential when considering topical application to treat skin conditions. One way to evaluate skin permeability is to use a Franz diffusion cell system with human skin as a membrane (Particle Sciences; Technical Brief 2009; Vol. 10). The donor compound (Compound 1), topically formulated, is applied on the top chamber and diffusion through the skin is monitored at relevant time points by sampling the solution in the receptor chamber via the sampling port. The concentration of Compound 1 was determined by quantitative HPLC analysis.

[3] = system: collagen cross-links; experiment: Rodent injury model (full-thickness skin excision); format: in vivo, mice
Description: Mice received injury by excision of full-thickness skin (3 cm^2 on the flank of the mice). In the treatment groups, 4% Compound 1 solution was applied topically, once a day, starting from 24 hours post injury to 1 week post injury. Wounds were then left to heal for an additional week. Mice were euthanized at 4-6 weeks post injury and the tissue was analyzed for collagen content, hydroxyproline as a surrogate marker of collagen content, extracted cross-link biomarkers: HLNL, DHLNL (reduced forms of deH-HLNL and deH-DHLNL respectively), PYD and DPD, elastin content, and changes in gross morphology and histology (using polarised light microscopy, immunohistochemistry, standard staining markers and LCMSMS).

[4] = 4% solution topically once a day, 24 hours to 1 week post injury, vs control (FIG. 4, *=P≤0.05)

IC50 ([1]; 30′ incubation): 9470 nM | IC50 ([1]; 2 h incubation): 1700 nM | IC50 ([1]; 4 h incubation): 920 nM | Level in the receptor chamber ([2]; after 24 hours (FIG. 2)): high levels | Permeability and diffusion through human skin ([2]; time dependent (FIG. 2)): good permeability and diffusion
Structure (SMILES): NC/C(=C\F)CS(=O)(=O)c1ccccc1 [Compound 1, (E)-3-fluoro-2-((phenylsulfonyl)methyl)prop-2-en-1-amine]
Time dependent LOXL1 inhibition ([1]; apparent potency increasing with time): time dependent LOXL1 and LOXL2 inhibition | Immature crosslinks (LCMS, normalized for protein content) [3, 4]: reduced | Mature crosslinks (LCMS, normalized for protein content) [3, 4]: reduced | Collagen cross-links ([3]; rodent injury model, FIG. 4 (*=P≤0.05)): reduction in collagen cross-links
